Laboratory results: ChEMBL document CHEMBL2440060, “Identification of a Novel and Selective Series of Itk Inhibitors via a Template-Hopping Strategy” (ACS Med Chem Lett, 2013)

How the values were obtained:
Aurora kinase B [1] = molecular target: T1, Aurora kinase B (Homo sapiens, UniProt Q96GD4); experiment: Inhibition of Aurora-B (unknown origin) using 5FAM-PKAtide as substrate after 120 mins
[2] = molecular target: T2, Tyrosine-protein kinase Lck (Homo sapiens, UniProt P06239); experiment: Inhibition of LCK (unknown origin) using tamra-p34cdc-derived peptide as substrate after 30 mins
[3] = molecular target: T3, Tyrosine-protein kinase ITK/TSK (Homo sapiens, UniProt Q08881); experiment: Inhibition of recombinant human FLAG-tagged ITK using biotinylated GST-SAM68 as substrate after 30 mins
T3 sequence (Q08881 whole entry): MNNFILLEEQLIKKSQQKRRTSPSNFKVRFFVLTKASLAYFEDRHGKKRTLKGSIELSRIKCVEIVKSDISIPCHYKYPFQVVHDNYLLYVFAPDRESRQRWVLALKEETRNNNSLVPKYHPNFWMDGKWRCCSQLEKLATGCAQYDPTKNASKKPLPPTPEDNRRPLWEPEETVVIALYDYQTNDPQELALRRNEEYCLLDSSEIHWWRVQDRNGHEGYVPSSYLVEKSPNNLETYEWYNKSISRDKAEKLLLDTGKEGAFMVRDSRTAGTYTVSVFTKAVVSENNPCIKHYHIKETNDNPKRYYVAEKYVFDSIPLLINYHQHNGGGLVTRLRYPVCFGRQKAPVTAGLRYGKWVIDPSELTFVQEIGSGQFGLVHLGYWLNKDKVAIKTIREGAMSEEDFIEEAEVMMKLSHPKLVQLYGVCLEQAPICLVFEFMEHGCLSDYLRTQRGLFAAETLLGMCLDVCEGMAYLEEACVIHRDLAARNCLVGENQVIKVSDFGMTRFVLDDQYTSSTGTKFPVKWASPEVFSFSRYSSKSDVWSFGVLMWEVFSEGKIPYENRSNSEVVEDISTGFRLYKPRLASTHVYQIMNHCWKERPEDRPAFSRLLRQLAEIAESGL

[4] = molecular target: Leucine-rich repeat serine/threonine-protein kinase 2 (Homo sapiens, UniProt Q5S007); experiment: Inhibition of LRRK2 (unknown origin)
[5] = molecular target: Epidermal growth factor receptor (Homo sapiens, UniProt P00533); experiment: Inhibition of EGFR (unknown origin)
[6] = molecular target: Tyrosine-protein kinase BTK (Homo sapiens, UniProt Q06187); experiment: Inhibition of Btk (unknown origin)
[7] = molecular target: T4, Tyrosine-protein kinase Tec (Homo sapiens, UniProt P42680); experiment: Inhibition of Tec (unknown origin)
T4 sequence (P42680 whole entry): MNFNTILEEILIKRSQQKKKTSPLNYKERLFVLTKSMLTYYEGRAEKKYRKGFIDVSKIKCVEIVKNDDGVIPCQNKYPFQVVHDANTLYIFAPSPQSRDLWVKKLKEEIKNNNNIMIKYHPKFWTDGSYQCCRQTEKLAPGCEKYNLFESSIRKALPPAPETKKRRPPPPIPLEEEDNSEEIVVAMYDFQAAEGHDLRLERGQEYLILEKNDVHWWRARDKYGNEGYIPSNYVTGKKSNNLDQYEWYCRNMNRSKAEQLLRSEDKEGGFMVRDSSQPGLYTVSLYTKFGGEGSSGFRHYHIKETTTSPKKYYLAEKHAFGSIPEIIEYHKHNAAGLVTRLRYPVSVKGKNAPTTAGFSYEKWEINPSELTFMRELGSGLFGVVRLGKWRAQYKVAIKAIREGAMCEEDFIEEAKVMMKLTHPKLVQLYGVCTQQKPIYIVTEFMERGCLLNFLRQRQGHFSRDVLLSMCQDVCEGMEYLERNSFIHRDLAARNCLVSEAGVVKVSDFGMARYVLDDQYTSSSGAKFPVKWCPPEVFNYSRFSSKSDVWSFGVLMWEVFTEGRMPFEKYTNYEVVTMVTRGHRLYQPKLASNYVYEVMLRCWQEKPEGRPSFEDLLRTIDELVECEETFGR

Insulin receptor = Insulin receptor (Homo sapiens, UniProt P06213); experiment: Inhibition of IR (unknown origin)
[8] = molecular target: Calcium/calmodulin-dependent protein kinase kinase 2 (Homo sapiens, UniProt Q96RR4); experiment: Inhibition of CAMKK2 (unknown origin)
[9] = molecular target: T5, Cytoplasmic tyrosine-protein kinase BMX (Homo sapiens, UniProt P51813); experiment: Inhibition of Bmx (unknown origin)
T5 sequence (P51813 whole entry): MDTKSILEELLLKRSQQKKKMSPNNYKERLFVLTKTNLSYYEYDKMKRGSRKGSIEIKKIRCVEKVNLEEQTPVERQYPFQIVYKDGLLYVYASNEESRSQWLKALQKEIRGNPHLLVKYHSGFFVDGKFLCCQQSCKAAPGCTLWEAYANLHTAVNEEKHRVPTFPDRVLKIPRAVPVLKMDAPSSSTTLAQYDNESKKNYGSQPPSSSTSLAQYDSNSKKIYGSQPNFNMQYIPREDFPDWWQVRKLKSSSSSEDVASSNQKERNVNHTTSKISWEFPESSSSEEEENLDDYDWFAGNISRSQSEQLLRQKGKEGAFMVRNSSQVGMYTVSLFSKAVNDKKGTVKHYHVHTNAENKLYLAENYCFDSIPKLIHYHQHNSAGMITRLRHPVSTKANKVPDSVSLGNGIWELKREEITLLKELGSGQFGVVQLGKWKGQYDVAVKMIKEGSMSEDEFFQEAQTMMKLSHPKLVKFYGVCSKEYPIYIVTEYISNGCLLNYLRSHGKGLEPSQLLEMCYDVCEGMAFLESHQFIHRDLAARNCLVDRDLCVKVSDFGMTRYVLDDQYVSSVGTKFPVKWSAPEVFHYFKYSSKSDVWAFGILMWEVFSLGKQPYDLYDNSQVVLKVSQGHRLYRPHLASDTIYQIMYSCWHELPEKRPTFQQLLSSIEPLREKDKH

[10] = molecular target: T6, Tyrosine-protein kinase TXK (Homo sapiens, UniProt P42681); experiment: Inhibition of TXK (unknown origin)
T6 sequence (P42681 whole entry): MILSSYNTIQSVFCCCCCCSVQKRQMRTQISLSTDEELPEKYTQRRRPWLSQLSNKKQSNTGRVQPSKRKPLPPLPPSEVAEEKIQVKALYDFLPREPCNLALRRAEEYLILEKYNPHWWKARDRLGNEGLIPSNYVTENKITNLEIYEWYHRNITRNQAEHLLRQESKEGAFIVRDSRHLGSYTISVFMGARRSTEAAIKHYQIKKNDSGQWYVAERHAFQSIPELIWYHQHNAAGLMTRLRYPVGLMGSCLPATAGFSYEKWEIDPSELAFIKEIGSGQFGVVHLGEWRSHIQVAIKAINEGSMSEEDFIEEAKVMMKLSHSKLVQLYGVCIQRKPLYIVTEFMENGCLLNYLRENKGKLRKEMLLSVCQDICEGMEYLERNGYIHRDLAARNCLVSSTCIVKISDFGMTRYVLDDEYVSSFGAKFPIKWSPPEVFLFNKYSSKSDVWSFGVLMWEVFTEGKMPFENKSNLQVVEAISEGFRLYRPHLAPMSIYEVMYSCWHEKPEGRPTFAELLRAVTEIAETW

[11] = molecular target: Proto-oncogene tyrosine-protein kinase Src (Homo sapiens, UniProt P12931); experiment: Inhibition of Src (unknown origin)
[12] = molecular target: T7, Interleukin-1 receptor-associated kinase 4 (Homo sapiens, UniProt Q9NWZ3); experiment: Inhibition of IRAK4 (unknown origin)
T7 sequence (Q9NWZ3 whole entry): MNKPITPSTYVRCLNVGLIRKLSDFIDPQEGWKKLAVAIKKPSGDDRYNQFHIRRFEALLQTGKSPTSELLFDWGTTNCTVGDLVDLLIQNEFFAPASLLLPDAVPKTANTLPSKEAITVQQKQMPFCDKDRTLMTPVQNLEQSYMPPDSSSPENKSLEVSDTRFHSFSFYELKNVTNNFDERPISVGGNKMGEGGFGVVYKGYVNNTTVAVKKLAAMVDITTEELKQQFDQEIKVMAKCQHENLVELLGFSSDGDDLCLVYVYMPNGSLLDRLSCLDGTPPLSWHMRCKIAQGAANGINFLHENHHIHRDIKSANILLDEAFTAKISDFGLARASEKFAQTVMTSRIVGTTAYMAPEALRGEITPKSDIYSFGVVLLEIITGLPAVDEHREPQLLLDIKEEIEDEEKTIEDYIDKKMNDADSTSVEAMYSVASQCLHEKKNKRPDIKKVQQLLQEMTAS

Aurora kinase B [13] = molecular target: T1, Aurora kinase B; experiment: Inhibition of Aurora-B (unknown origin)
PBMC = experiment: Inhibition of cytostim-induced IFNgamma production in human PBMC treated 1 hr before cytostim stimulation measured after 18 hrs by MSD assay; format: functional, cell-based
[14] = molecular target: T2, Tyrosine-protein kinase Lck; experiment: Inhibition of LCK (unknown origin)
[15] = molecular target: T3, Tyrosine-protein kinase ITK/TSK; experiment: Inhibition of ITK (unknown origin)

T1 sequence (Q96GD4 whole entry): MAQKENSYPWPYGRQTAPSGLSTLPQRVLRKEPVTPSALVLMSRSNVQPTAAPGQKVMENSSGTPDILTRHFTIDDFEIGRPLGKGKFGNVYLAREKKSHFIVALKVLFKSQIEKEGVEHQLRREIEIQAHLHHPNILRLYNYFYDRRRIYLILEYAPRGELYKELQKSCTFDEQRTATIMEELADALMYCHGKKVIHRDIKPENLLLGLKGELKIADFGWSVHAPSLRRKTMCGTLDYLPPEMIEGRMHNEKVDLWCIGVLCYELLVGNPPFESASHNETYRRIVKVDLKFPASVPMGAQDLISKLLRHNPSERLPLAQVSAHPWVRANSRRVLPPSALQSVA
T2 sequence (P06239 whole entry): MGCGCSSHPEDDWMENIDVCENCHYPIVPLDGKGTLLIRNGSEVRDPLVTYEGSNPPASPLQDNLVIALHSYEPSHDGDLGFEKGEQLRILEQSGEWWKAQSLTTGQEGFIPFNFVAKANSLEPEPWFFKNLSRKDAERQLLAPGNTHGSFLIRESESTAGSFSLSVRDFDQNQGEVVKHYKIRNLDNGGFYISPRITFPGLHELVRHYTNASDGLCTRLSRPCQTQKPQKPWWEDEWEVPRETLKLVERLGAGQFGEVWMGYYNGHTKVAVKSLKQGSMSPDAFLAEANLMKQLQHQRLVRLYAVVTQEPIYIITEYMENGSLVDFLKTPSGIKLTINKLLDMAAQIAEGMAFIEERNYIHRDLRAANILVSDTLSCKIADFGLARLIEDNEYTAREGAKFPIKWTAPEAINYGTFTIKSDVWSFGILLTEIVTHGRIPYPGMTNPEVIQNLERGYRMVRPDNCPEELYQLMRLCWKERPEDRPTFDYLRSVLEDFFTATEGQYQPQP
Sequence of Calcium/calmodulin-dependent protein kinase kinase 2 (Q96RR4 whole entry): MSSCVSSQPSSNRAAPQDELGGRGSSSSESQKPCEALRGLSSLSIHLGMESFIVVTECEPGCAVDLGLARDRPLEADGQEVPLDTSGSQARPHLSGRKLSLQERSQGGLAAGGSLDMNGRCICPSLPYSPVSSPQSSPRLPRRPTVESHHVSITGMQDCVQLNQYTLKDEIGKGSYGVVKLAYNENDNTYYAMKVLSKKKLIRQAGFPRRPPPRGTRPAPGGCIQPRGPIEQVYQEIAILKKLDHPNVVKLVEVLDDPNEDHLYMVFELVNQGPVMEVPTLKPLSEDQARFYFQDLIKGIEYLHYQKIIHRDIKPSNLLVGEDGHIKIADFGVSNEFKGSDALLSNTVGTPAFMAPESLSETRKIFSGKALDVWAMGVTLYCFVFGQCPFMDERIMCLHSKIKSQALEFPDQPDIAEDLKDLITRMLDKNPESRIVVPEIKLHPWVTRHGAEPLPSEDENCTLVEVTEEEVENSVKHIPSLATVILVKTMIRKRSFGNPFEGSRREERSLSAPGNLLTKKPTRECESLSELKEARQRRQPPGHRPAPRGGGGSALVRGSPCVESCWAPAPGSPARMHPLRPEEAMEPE
Sequence of Tyrosine-protein kinase BTK (Q06187 whole entry): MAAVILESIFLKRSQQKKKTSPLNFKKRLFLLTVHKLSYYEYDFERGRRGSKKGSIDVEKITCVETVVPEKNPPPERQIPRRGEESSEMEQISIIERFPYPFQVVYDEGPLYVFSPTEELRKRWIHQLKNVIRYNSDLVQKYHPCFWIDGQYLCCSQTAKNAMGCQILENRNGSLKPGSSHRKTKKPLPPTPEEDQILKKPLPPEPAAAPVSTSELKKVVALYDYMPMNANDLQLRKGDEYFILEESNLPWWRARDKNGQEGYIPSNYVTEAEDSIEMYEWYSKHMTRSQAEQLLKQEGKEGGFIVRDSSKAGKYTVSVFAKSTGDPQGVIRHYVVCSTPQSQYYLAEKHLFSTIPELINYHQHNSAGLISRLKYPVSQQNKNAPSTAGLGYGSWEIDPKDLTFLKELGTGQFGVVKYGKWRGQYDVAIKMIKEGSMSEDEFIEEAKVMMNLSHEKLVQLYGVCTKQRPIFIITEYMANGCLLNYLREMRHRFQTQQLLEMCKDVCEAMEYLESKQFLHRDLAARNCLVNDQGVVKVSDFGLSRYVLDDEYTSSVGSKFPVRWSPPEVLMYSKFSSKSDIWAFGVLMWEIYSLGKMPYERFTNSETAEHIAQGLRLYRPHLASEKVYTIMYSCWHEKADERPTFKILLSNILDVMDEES
Sequence of Leucine-rich repeat serine/threonine-protein kinase 2 (Q5S007 whole entry): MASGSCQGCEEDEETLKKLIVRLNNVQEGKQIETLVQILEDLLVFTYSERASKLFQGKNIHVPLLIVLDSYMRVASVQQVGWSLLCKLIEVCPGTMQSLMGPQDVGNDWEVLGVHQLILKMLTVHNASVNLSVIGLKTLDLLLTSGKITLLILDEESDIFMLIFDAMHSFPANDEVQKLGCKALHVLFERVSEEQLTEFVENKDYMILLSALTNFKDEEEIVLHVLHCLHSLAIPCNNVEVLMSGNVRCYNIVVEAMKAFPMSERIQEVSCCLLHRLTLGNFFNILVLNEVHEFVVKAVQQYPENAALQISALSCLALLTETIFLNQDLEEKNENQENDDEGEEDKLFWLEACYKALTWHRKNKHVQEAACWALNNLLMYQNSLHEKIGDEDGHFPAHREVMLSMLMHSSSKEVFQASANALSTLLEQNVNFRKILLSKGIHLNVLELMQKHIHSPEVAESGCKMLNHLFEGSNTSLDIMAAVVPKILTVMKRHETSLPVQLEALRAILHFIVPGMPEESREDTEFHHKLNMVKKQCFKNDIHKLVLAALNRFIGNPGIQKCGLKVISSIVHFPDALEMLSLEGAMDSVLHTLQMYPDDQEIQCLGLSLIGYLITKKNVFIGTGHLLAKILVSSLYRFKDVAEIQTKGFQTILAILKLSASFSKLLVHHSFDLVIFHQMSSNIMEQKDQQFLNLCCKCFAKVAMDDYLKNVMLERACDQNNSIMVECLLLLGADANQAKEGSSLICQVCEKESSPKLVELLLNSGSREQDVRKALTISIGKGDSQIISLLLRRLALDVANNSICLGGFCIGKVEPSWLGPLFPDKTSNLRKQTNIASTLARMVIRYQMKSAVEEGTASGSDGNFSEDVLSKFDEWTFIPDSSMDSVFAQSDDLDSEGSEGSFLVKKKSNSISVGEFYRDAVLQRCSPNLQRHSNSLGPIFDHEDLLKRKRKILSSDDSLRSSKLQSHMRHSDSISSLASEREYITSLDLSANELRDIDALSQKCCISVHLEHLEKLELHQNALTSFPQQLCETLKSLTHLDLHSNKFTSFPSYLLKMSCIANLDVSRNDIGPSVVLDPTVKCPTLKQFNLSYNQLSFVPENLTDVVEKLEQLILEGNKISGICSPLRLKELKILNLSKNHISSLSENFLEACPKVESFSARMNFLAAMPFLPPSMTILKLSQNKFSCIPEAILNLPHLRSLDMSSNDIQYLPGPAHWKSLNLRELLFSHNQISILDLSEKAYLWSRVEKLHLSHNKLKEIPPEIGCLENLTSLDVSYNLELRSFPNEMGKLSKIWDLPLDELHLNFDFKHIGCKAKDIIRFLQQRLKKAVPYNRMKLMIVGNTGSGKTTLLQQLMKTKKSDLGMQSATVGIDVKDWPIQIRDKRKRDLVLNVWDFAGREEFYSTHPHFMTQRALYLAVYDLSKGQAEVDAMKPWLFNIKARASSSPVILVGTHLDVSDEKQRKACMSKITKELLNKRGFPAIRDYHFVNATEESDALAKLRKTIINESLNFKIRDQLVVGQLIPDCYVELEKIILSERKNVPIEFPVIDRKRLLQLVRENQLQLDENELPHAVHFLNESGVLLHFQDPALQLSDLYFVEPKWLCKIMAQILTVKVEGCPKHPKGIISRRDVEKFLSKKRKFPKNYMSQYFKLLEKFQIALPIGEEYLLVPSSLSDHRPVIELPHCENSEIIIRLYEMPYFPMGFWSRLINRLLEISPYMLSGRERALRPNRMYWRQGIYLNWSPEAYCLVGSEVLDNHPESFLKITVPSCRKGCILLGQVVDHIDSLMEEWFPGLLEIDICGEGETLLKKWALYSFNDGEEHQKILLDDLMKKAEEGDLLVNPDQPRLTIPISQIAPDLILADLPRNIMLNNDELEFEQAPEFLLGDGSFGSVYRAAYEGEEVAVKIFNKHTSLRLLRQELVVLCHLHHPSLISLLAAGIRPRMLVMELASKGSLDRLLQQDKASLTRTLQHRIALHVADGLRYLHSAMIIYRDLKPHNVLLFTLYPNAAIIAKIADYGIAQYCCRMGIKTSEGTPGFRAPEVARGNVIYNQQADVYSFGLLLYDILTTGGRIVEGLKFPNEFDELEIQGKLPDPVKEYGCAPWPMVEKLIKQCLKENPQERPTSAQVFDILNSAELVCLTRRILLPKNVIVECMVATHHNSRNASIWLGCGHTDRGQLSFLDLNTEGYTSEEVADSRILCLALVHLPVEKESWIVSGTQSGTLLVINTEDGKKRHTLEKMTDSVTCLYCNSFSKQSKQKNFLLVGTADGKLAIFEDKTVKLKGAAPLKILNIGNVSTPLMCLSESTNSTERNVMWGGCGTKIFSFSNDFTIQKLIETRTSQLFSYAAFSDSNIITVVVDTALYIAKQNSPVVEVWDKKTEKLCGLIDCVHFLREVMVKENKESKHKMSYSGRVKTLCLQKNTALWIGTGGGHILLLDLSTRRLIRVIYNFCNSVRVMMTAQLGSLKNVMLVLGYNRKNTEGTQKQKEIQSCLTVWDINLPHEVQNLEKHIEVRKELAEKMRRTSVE

Structure (SMILES)	Ki (Aurora kinase B [1])	Ki [2]	Ki [3]	further results
COc1ccc2nc(Nc3cc(C(F)(F)c4ccc(F)cc4)nc(N4CCC[C@H]4C(N)=O)n3)sc2c1	> 20000 nM	2510 nM	3980 nM	–
CCc1ccc2nc(Nc3cc(Cc4ccccc4)nc(N[C@H]4CC[C@H](O)CC4)n3)sc2c1	398 nM	100 nM	0.631 nM	IC50 [4]: 398 nM; IC50 [5]: 631 nM; IC50 [6]: 316 nM; IC50 [7]: 251 nM; IC50 (Insulin receptor): 158 nM; IC50 [8]: 200 nM; IC50 [9]: 158 nM; IC50 [10]: 79.4 nM; IC50 [11]: 39.8 nM; IC50 [12]: 3.98 nM; IC50 (Aurora kinase B [13]): 398 nM; IC50 (PBMC): 50.1 nM; IC50 [14]: 126 nM
Cc1csc(Nc2cc(Cc3ccccc3)nc(N[C@H]3CC[C@H](O)CC3)n2)n1	> 20000 nM	3160 nM	158 nM	–
COc1ccc2nc(Nc3cc(Cc4ccccc4)nc(N[C@H]4CC[C@H](O)CC4)n3)sc2c1	501 nM	126 nM	3.98 nM	IC50 (PBMC): 25.1 nM
O[C@H]1CC[C@H](Nc2nc(Nc3ccc(Oc4ccc(F)cc4)cn3)cc(C(F)(F)c3ccc(F)cc3)n2)CC1	5010 nM	501 nM	501 nM	–
O[C@H]1CC[C@H](Nc2nc(Nc3cc4ccccc4cn3)cc(C(F)(F)c3ccc(F)cc3)n2)CC1	79.4 nM	100 nM	6.31 nM	–
O[C@H]1CC[C@H](Nc2nc(Cc3ccccc3)cc(Nc3nc4ccccc4s3)n2)CC1	398 nM	316 nM	1 nM	–
NC(=O)[C@@H]1CCCN1c1nc(Nc2ncc(Cc3ccccc3)s2)cc(C(F)(F)c2ccc(F)cc2)n1	3160 nM	316 nM	> 10000 nM	–
COc1ccc2nc(Nc3cc(Cc4ccccc4)nc(N[C@H]4CC[C@H](O)CC4)n3)sc2n1	316 nM	79.4 nM	0.2 nM	–
Cc1cc2nc(Nc3cc(Cc4ccccc4)nc(N[C@H]4CC[C@H](O)CC4)n3)sc2cc1C	20000 nM	> 25100 nM	> 10000 nM	–
O[C@H]1CC[C@H](Nc2nc(Cc3ccccc3)cc(Nc3nc4ccc(C(F)(F)F)cc4s3)n2)CC1	251 nM	50.1 nM	12.6 nM	–
COc1ccc2nc(Nc3cc(C(F)(F)c4ccc(F)cc4)nc(N[C@H]4CC[C@H](O)CC4)n3)sc2c1	2510 nM	251 nM	20 nM	–
Cc1ccc2nc(Nc3cc(Cc4ccccc4)nc(N[C@H]4CC[C@H](O)CC4)n3)sc2c1	316 nM	251 nM	0.398 nM	–
CS(=O)(=O)N1CCOC(CNc2nc(Cc3ccccc3)cc(Nc3cc(-c4ccco4)n[nH]3)n2)C1 (stereo not drawn)	–	–	–	Ki (Aurora kinase B [13]): 316 nM; Ki [14]: 501 nM; Ki [15]: 6.31 nM
O[C@H]1CC[C@H](Nc2nc(Cc3ccccc3)cc(Nc3nc4cccnc4s3)n2)CC1	100 nM	100 nM	0.251 nM	–
O[C@H]1CC[C@H](Nc2nc(Nc3ncc(Cc4ccccc4)s3)cc(C(F)(F)c3ccc(F)cc3)n2)CC1	5.01 nM	100 nM	63.1 nM	–
N#Cc1ccc2nc(Nc3cc(Cc4ccccc4)nc(N[C@H]4CC[C@H](O)CC4)n3)sc2c1	79.4 nM	63.1 nM	0.251 nM	–
COc1ccc2nc(Nc3cc(C(F)(F)c4ccc(F)cc4)nc(N[C@H]4CC[C@H](O)CC4)n3)sc2n1	> 20000 nM	200 nM	15.8 nM	–
Cc1cnc(Nc2cc(Cc3ccccc3)nc(N[C@H]3CC[C@H](O)CC3)n2)s1	0.501 nM	20 nM	2 nM	–
CCc1ccc2nc(Nc3cc(Cc4ccccc4)nc(N[C@H]4CC[C@H](O)CC4)n3)sc2n1	63.1 nM	100 nM	1.58 nM	–
O[C@H]1CC[C@H](Nc2nc(Nc3n[nH]c4ccccc34)cc(C(F)(F)c3ccc(F)cc3)n2)CC1	631 nM	15800 nM	794 nM	–
NC(=O)C1CCN1c1nc(Cc2ccccc2)cc(Nc2cc(C3CCC3)n[nH]2)n1 (stereo not drawn)	–	–	–	Ki (Aurora kinase B [13]): 79.4 nM; Ki [14]: 501 nM; Ki [15]: 15.8 nM
O[C@H]1CC[C@H](Nc2nc(Cc3ccccc3)cc(Nc3nc4ccc(Cl)cc4s3)n2)CC1	251 nM	79.4 nM	0.316 nM	–
